pIC50: −log10 of the molar value.
Target: T1, c-kit (Homo sapiens, UniProt P10721)
T1 construct: MO7e (human megakaryocytic leukemia cell line) which had been arrested for 20 hr; endogenous in cells; host or cells: MO7e human megakaryocytic leukemia cell line
Experiment: Inhibitory activity against c-kit autophosphorylation (MO7e cells, h-SCF)
Assay type: cell-based
Conditions: MO7e cells, 50 ng/ml h-SCF; read-out: c-kit IC50
Procedure, shortened: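 First, human megakaryocytic leukemia MO7e cells arrested 20 hr receive compound for one hour. Second, SCF stimulation (50 ng/ml) runs 5 min, after which cells are solubilized. Third, tyrosine-phosphorylated c-kit in the lysate is quantified by sandwich ELISA with absorbance at 450 nm.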

T1 sequence (P10721 26-976): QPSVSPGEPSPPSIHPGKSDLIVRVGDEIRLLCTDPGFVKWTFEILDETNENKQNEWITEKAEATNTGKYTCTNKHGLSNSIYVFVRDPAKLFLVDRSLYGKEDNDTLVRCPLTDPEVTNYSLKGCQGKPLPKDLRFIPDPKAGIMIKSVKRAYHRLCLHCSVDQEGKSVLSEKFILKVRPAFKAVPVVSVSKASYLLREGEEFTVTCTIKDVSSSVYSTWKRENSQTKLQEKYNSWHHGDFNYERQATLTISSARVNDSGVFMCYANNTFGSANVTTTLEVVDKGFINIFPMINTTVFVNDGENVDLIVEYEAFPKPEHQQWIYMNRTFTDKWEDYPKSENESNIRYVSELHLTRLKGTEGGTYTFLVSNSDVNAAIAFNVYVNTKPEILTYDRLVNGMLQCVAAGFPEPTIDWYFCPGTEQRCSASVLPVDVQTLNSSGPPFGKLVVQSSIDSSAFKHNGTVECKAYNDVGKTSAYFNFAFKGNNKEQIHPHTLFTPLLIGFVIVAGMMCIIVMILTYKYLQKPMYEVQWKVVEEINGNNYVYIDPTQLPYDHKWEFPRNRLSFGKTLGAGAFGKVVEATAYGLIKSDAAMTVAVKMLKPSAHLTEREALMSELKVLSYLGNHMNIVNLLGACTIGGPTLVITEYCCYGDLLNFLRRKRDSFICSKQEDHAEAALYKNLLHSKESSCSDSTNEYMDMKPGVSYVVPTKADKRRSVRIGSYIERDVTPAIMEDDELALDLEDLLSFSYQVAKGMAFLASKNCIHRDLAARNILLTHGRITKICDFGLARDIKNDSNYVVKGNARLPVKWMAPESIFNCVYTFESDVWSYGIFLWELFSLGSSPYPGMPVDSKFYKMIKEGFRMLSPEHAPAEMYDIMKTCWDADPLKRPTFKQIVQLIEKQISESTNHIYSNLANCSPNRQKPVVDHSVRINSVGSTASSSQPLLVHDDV

First: COc1cc2nccc(Oc3ccc(OCCNc4ccccc4C)cc3)c2cc1OC [Example 783, N-(2-{4-[(6,7-Dimethoxy-4-quinolyl)oxy]phenoxy}ethyl)-N-(2-methylphenyl)amine]
Second: COc1cc2nccc(Oc3ccc(OCCNc4cccc(C)c4)cc3)c2cc1OC [Example 785, N-(2-{4-[(6,7-Dimethoxy-4-quinolyl)oxy]phenoxy}ethyl)-N-(3-methylphenyl)amine]
The pIC50 of the first is 0.80 log units lower: 6.35 for the first, 7.15 for the second.

Same assay, conditions: MO7e cells, h-SCF 50 ng/ml; read-out: c-kit IC50

Molecule `COc1cc2nccc(Oc3ccc(NC(=O)Oc4ccccc4)c(C)c3C)c2cc1OC` [Example 217, Phenyl N-{4-[(6,7-dimethoxy-4-quinolyl)oxy]-2,3-dimethylphenyl}carbamate] has a pIC50 of 7.41.

Same assay, conditions: MO7e cells, h-SCF stimulation; read-out: c-kit IC50

First: COc1cc2nccc(Oc3ccc(NC(=S)NC(=O)c4cccc(C)c4)cc3C)c2cc1OC [Example 1110, N-{4-[(6,7-Dimethoxy-4-quinolyl)oxy]-3-methylphenyl}-N′-(3-methylbenzoyl)thiourea]
Second: COc1cc2nccc(Oc3ccc(NC(=S)NC(=O)c4ccccc4)cc3C)c2cc1OC [Example 1109, N-Benzoyl-N′-{4-[(6,7-dimethoxy-4-quinolyl)oxy]-3-methylphenyl}thiourea]
The pIC50 of the first is 0.50 log units higher: 6.95 for the first, 6.45 for the second.

Going from `COc1cc2ncnc(Oc3ccc(NC(=S)NC(=O)c4cccc(C)c4)cc3)c2cc1OC` [Example 954, N-{4-[(6,7-Dimethoxy-4-quinazolinyl)-oxy]phenyl}-N′-(3-methylbenzoyl)thiourea] to `COc1ccc(C(=O)NC(=S)Nc2ccc(Oc3ccnc4cc(OC)c(OC)cc34)cc2)cc1OC` [Example 1010, N-(3,4-Dimethoxybenzoyl)-N′-{4-[(6,7-dimethoxy-4-quinolyl)oxy]phenyl}thiourea], the pIC50 rises from 6.88 to 7.11 (0.23 log units). The second is the more potent here.

`COc1cc2nccc(Oc3ccc(NC(=S)NC(=O)C4CC4c4ccccc4)cc3Cl)c2cc1OC` (stereo not drawn) [Example 1059, N-{3-Chloro-4-[(6,7-dimethoxy-4-quinolyl)oxy]phenyl}-N′-[(2-phenylcyclopropyl)carbonyl]thiourea] and `COc1cc2nccc(Oc3ccc(NC(=S)NC(=O)c4ccccc4)cc3Cl)c2cc1OC` [Example 918, N-Benzoyl-N′-{3-chloro-4-[(6,7-dimethoxy-4-quinolyl)oxy]phenyl}thiourea] are the same in pIC50: 6.26 for the first, 6.26 for the second.

`COc1cc2nccc(Oc3ccc(NC(=S)NC(=O)c4ccccc4)c(C)c3)c2cc1OC` [Example 1099, N-Benzoyl-N′-{4-[(6,7-dimethoxy-4-quinolyl)oxy]-2-methylphenyl}thiourea] and `COc1cc2nccc(Oc3ccc(NC(=S)NC(=O)c4ccccc4Br)cc3)c2cc1OC` [Example 900, N-(2-Bromobenzoyl)-N′-{4-[(6,7-dimethoxy-4-quinolyl)oxy]phenyl}thiourea] are within 0.2 log units of each other in pIC50: 6.26 for the first, 6.43 for the second.

Compared with `COc1cc2nccc(Oc3ccc(NC(=S)NC(=O)c4ccc(C)cc4)cc3Cl)c2cc1OC` [Example 977, N-{3-Chloro-4-[(6,7-dimethoxy-4-quinolyl)oxy]phenyl}-N′-(4-methylbenzoyl)thiourea], `COc1cc2nccc(Oc3ccc(NC(=S)NC(=O)c4cccc(Cl)c4)cc3Cl)c2cc1OC` [Example 949] is 0.52 log units higher in pIC50: 6.08 for the first, 6.60 for the second. The second is the more potent here.

First: COc1cc2nccc(Oc3ccc(NC(=S)NC(=O)c4cccc(F)c4)cc3Cl)c2cc1OC [Example 948, N-{3-Chloro-4-[(67-dimethoxy-4-quinolyl)oxy]phenyl}-N′-(3-fluorobenzoyl)thiourea]
Second: COc1cc2nccc(Oc3ccc(NC(=S)NC(=O)c4ccccc4C(F)(F)F)cc3Cl)c2cc1OC [Example 924, N-{3-Chloro-4-[(6,7-dimethoxy-4-quinolyl)oxy]phenyl}-N′-[2-(trifluoromethyl)benzoyl]thiourea]
The pIC50 of the first is 0.28 log units lower: 6.08 for the first, 6.36 for the second.

`COc1cc2nccc(Oc3ccc(SCCOc4ccc(C)cc4)cc3)c2cc1OC` [Example 814, 6,7-Dimethoxy-4-(4-{[2-(4-methylphenoxy)ethyl]sulfanyl}phenoxy)quinoline] and `COc1cc2nccc(Oc3ccc(SCCOc4ccccc4F)cc3)c2cc1OC` [Example 822] are within 0.2 log units of each other in pIC50: 6.39 for the first, 6.35 for the second.

Going from `COc1cc2nccc(Oc3ccc(NCCOc4ccccc4C)cc3C)c2cc1OC` [Example 876, N-{4-[(6,7-Dimethoxy-4-quinolyl)oxy]-3-methylphenyl}-N-[2-(2-methylphenoxy)ethyl]amine] to `COc1cc2nccc(Oc3ccc(NCCOc4ccc(Cl)cc4Cl)cc3)c2cc1OC` [Example 851, N-[2-(2,4-Dichlorophenoxy)ethyl]-N-{4-[(6,7-dimethoxy-4-quinolyl)oxy]phenyl}amine], the pIC50 rises from 6.62 to 7.12 (0.50 log units).

Compared with `COc1ccc(C(=O)NC(=S)Nc2ccc(Oc3ccnc4cc(OC)c(OC)cc34)c(F)c2)cc1` [Example 976, N-{4-[(6,7-Dimethoxy-4-quinolyl)oxy]-3-fluorophenyl}-N′-(4-methoxybenzoyl)thiourea], `COc1cc2nccc(Oc3ccc(NC(=S)NC(=O)N(C)c4ccccc4)cc3Cl)c2cc1OC` [Example 1053, N-{3-Chloro-4-[(6,7-dimethoxy-4-quinolyl)oxy]phenyl}-{[(methylanilino)carbonyl]amino}methanethioamide] is 0.65 log units higher in pIC50: 6.10 for the first, 6.75 for the second. The second is the more potent here.

Molecule `COc1cc2nccc(Oc3ccc(NC(=S)NC(=O)C4CCCC4)c(F)c3)c2cc1OC` [Example 1063, N-Cyclopentylcarbonyl-N′-{4-[(6,7-dimethoxy-4-quinolyl)oxy]-2-fluorophenyl}thiourea] has a pIC50 of 6.31.

Same assay, conditions: Mo7e, figure in parentheses in −( ); at 1000 nM

First: COc1cc2nccc(Oc3ccc(NC(=S)NC(=O)c4ccsc4)c(F)c3)c2cc1OC [Example 1036, N-{4-[(6,7-Dimethoxy-4-quinolyl)oxy]-2-fluorophenyl}-N′-(3-thienylcarbonyl)thiourea]
Second: COc1cc2nccc(Oc3ccc(NC(=S)NC(=O)c4ccc(C)cc4)c(F)c3)c2cc1OC [Example 964, N-{4-[(6,7-Dimethoxy-4-quinolyl)oxy]-2-fluorophenyl}-N′-(4-methylbenzoyl)thiourea]
The inhibition at 1 µM of the first is lower: 29% for the first, 46% for the second.

Going from `COc1cc2nccc(Oc3ccc(NC(=S)NC(=O)c4ccc(I)cc4)cc3Cl)c2cc1OC` [Example 981, N-{3-Chloro-4-[(6,7-dimethoxy-4-quinolyl)oxy]phenyl}-N′-(4-iodobenzoyl)thiourea] to `COc1ccc(C(=O)NC(=S)Nc2ccc(Oc3ccnc4cc(OC)c(OC)cc34)c(Cl)c2)cc1` [Example 983, N-{3-Chloro-4-[(6,7-dimethoxy-4-quinolyl)oxy]phenyl}-N′-(4-methoxybenzoyl)thiourea], the inhibition at 1 µM falls from 47% to 39%.

Going from `COc1cc2nccc(Oc3ccc(NC(=S)NC(=O)c4ccccc4OC)cc3F)c2cc1OC` [Example 916, N-{4-[(6,7-Dimethoxy-4-quinolyl)oxy]-3-fluorophenyl}-N′-(2-methoxybenzoyl)thiourea] to `COc1cc2nccc(Oc3ccc(NC(=S)NC(=O)c4ccccc4OC)cc3)c2cc1OC` [Example 901, N-{4-[(6,7-Dimethoxy-4-quinolyl)oxy]phenyl}-N′-(2-methoxybenzoyl)thiourea], the inhibition at 1 µM rises from 16% to 27%.

Compared with `COc1cc2nccc(Oc3ccc(NC(=S)NC(=O)c4cccc(F)c4)c(C)c3)c2cc1OC` [Example 1091, N-{4-[(6,7-Dimethoxy-4-quinolyl)oxy]-2-methylphenyl}-N′-(3-fluorobenzoyl)thiourea], `COc1cc2nccc(Oc3ccc(NC(=S)NC(=O)c4ccccc4F)c(F)c3)c2cc1OC` [Example 906, N-{4-[(6,7-Dimethoxy-4-quinolyl)oxy]-2-fluorophenyl}-N′-(2-fluorobenzoyl)thiourea] is lower in inhibition at 1 µM: 39% for the first, 29% for the second.

Going from `COc1cc2nccc(Oc3ccc(NC(=S)NC(=O)c4c(Cl)cccc4Cl)cc3)c2cc1OC` [Example 1118, N-(2,6-Dichlorobenzoyl)-N′-{4-[(6,7-dimethoxy-4-quinolyl)oxy]phenyl}thiourea] to `COc1cc2nccc(Oc3ccc(NC(=S)NC(=O)c4ccc([N+](=O)[O-])cc4)cc3)c2cc1OC` [Example 962, N-{4-[(6,7-Dimethoxy-4-quinolyl)oxy]phenyl}-N′-(4-nitrobenzoyl)thiourea], the inhibition at 1 µM rises from 0% to 35%.

Compared with `COc1cc2ncnc(Oc3ccc(NC(=S)NC(=O)c4ccc(F)cc4F)cc3)c2cc1OC` [Example 1021, N-(2,4-Difluorobenzoyl)-N′-{4-[(6,7-dimethoxy-4-quinazolinyl)oxy]phenyl}thiourea], `COc1cc2ncnc(Oc3ccc(NC(=S)NC(=O)c4ccccc4OC)cc3)c2cc1OC` [Example 929, N-{4-[(6,7-Dimethoxy-4-quinazolinyl)oxy]phenyl}-N′-(2-methoxybenzoyl)thiourea] is lower in inhibition at 1 µM: 38% for the first, 21% for the second.

Compared with `COc1ccc(C(=O)NC(=S)Nc2ccc(Oc3ccnc4cc(OC)c(OC)cc34)cc2)c(OC)c1` [Example 1119, N-(2,4-Dimethoxybenzoyl)-N′-{4-[(6,7-dimethoxy-4-quinolyl)oxy]phenyl}thiourea], `COc1cc2nccc(Oc3ccc(NC(=S)NC(=O)c4ccccc4C)cc3Cl)c2cc1OC` [Example 919, N-{3-Chloro-4-[(6,7-dimethoxy-4-quinolyl)oxy]phenyl}-N′-(2-methylbenzoyl)thiourea] is lower in inhibition at 1 µM: 27% for the first, 11% for the second.

Going from `COc1cc2ncnc(Oc3ccc(NC(=S)NC(=O)c4ccc(C)cc4)cc3)c2cc1OC` [Example 984, N-{4-[(6,7-Dimethoxy-4-quinazolinyl)oxy]phenyl}-N′-(4-methylbenzoyl)thiourea] to `COc1cc2nccc(Oc3ccc(NC(=S)NC(=O)c4ccc(Br)cc4)cc3F)c2cc1OC` [Example 973, N-(4-Bromobenzoyl)-N′-{4-[(6,7-dimethoxy-4-quinolyl)oxy]-3-fluorophenyl}thiourea], the inhibition at 1 µM falls from 30% to 0%.

`COc1cc2nccc(Oc3ccc(S(=O)(=O)CCOc4ccc(C)c(C)c4)cc3)c2cc1OC` [Example 833, 4-[(6,7-Dimethoxy-4-quinolyl)oxy]phenyl [2-(3,4-dimethylphenoxy)ethyl]sulfone] was tested, and the inhibition at 1 µM was 26%.

Source: patent publication US7135466B2 (Kirin Beer Kabushiki Kaisha, priority 1999, dated 2006)
